Assay results from ChEMBL document CHEMBL1269000, “Synthesis and biological evaluation of [D-lysine]8cyclosporin A analogs as potential anti-HCV agents” (Bioorg Med Chem Lett, 2010).

Key:
Jurkat = assay: Immunosuppressive activity against human Jurkat cells assessed as inhibition of phytohemagglutinin-M/phorbol myristate acetate-induced IL2 production; format: cell-based
[1] = biological target: Peptidyl-prolyl cis-trans isomerase B (Homo sapiens, UniProt P23284); assay: Binding affinity to cyclophilin B by ELISA
[2] = Cytotoxicity against human HuH7 cells assessed as release of lactate dehydrogenase; format: cell-based, Huh-7; details: for IC50: Homo sapiens, Huh-7; for IC90: human, HuH7 cells
Hepatitis C virus = assay: Antiviral activity against HCV after 72 hrs by stable luciferase reporter gene assay; format: functional, organism-based, Hepacivirus hominis
[3] = biological target: Peptidyl-prolyl cis-trans isomerase A (Homo sapiens, UniProt P62937); assay: Binding affinity to cyclophilin A by ELISA
Peptidyl-prolyl cis-trans isomerase A, sequence (P62937 whole entry): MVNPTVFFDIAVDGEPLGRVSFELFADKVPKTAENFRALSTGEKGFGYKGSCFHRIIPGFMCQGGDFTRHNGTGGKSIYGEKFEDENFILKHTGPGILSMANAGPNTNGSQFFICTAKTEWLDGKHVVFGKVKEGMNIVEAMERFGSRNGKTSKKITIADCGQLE

Peptidyl-prolyl cis-trans isomerase B, sequence (P23284 whole entry): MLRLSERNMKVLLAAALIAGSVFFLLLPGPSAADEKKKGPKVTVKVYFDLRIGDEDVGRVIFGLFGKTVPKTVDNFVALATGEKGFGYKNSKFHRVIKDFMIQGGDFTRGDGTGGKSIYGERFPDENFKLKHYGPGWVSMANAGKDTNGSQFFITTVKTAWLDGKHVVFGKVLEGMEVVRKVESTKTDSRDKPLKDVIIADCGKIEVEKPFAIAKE

| Structure (SMILES) | EC50 (Jurkat) [nM] | IC50 [1] [nM] | EC50 (Hepatitis C virus) [nM] | EC90 (Hepatitis C virus) [nM] | IC50 [3] [nM] | IC50 [2] [nM] | IC90 [2] [nM] |
| --- | --- | --- | --- | --- | --- | --- | --- |
| C/C=C/C[C@@H](C)[C@@H](O)[C@H]1C(=O)N[C@@H](CC)C(=O)N(C)CC(=O)N(C)[C@@H](CC(C)C)C(=O)N[C@@H](C(C)C)C(=O)N(C)[C@@H](CC(C)C)C(=O)N[C@@H](C)C(=O)N[C@H](CCN(C)C)C(=O)N(C)[C@@H](CC(C)C)C(=O)N(C)[C@@H](CC(C)C)C(=O)N(C)[C@@H](C(C)C)C(=O)N1C | 24 | 59.5 | 170 | 300 | 46 | 3280 | > 10000 |
| C/C=C/C[C@@H](C)[C@@H](O)[C@H]1C(=O)N[C@@H](CC)C(=O)N(C)CC(=O)N(C)[C@@H](CC(C)C)C(=O)N[C@@H](C(C)C)C(=O)N(C)[C@@H](CC(C)C)C(=O)N[C@@H](C)C(=O)N[C@H](CCCN(C)C)C(=O)N(C)[C@@H](CC(C)C)C(=O)N(C)[C@@H](CC(C)C)C(=O)N(C)[C@@H](C(C)C)C(=O)N1C | 39 | 28.9 | 140 | 380 | 35.2 | 2150 | 8730 |
| C/C=C/C[C@@H](C)[C@@H](O)[C@H]1C(=O)N[C@@H](CC)C(=O)N(C)CC(=O)N(C)[C@@H](CC(C)C)C(=O)N[C@@H](C(C)C)C(=O)N(C)[C@@H](CC(C)C)C(=O)N[C@@H](C)C(=O)N[C@H](CCCN(CC)CC)C(=O)N(C)[C@@H](CC(C)C)C(=O)N(C)[C@@H](CC(C)C)C(=O)N(C)[C@@H](C(C)C)C(=O)N1C | 134 | 17.2 | 150 | 370 | 21.4 | 1820 | 8910 |
| C/C=C/C[C@@H](C)[C@@H](O)[C@H]1C(=O)N[C@@H](CC)C(=O)N(C)CC(=O)N(C)[C@@H](CC(C)C)C(=O)N[C@@H](C(C)C)C(=O)N(C)[C@@H](CC(C)C)C(=O)N[C@@H](C)C(=O)N[C@H](CCCCN)C(=O)N(C)[C@@H](CC(C)C)C(=O)N(C)[C@@H](CC(C)C)C(=O)N(C)[C@@H](C(C)C)C(=O)N1C | 94 | 12.7 | 1000 | 2850 | 11.1 | > 10000 | > 10000 |
| C/C=C/C[C@@H](C)[C@@H](O)[C@H]1C(=O)N[C@@H](CC)C(=O)N(C)CC(=O)N(C)[C@@H](CC(C)C)C(=O)N[C@@H](C(C)C)C(=O)N(C)[C@@H](CC(C)C)C(=O)N[C@@H](C)C(=O)N[C@H](CCNC(=O)C(C)(C)C)C(=O)N(C)[C@@H](CC(C)C)C(=O)N(C)[C@@H](CC(C)C)C(=O)N(C)[C@@H](C(C)C)C(=O)N1C | 22 | 26.1 | 140 | 360 | 31.2 | 2020 | > 10000 |
| C/C=C/C[C@@H](C)[C@@H](O)[C@H]1C(=O)N[C@@H](CC)C(=O)N(C)CC(=O)N(C)[C@@H](CC(C)C)C(=O)N[C@@H](C(C)C)C(=O)N(C)[C@@H](CC(C)C)C(=O)N[C@@H](C)C(=O)N[C@H](CCCN)C(=O)N(C)[C@@H](CC(C)C)C(=O)N(C)[C@@H](CC(C)C)C(=O)N(C)[C@@H](C(C)C)C(=O)N1C | 111 | 1580 | 1890 | 6740 | 662 | > 10000 | > 10000 |

The remaining compounds from weak to strong by EC50 (Jurkat), led by results:

| EC50 (Jurkat) [nM] | IC50 [1] [nM] | EC50 (Hepatitis C virus) [nM] | EC90 (Hepatitis C virus) [nM] | IC50 [3] [nM] | Structure (SMILES) | IC50 [2] [nM] | IC90 [2] [nM] |
| --- | --- | --- | --- | --- | --- | --- | --- |
| 4210 | 10.3 | 50 | 240 |  | C/C=C/C[C@@H](C)[C@@H](O)[C@H]1C(=O)N[C@@H](CC)C(=O)N(C)[C@H](SCCN(C)C)C(=O)N(C)[C@@H](CC(C)(C)O)C(=O)N[C@@H](C(C)C)C(=O)N(C)[C@@H](CC(C)C)C(=O)N[C@@H](C)C(=O)N[C@H](C)C(=O)N(C)[C@@H](CC(C)C)C(=O)N(C)[C@@H](CC(C)C)C(=O)N(C)[C@@H](C(C)C)C(=O)N1C [SCY 635] | > 10000 | > 10000 |
| 121 | 20.6 | 160 | 300 | 22.8 | C/C=C/C[C@@H](C)[C@@H](O)[C@H]1C(=O)N[C@@H](CC)C(=O)N(C)CC(=O)N(C)[C@@H](CC(C)C)C(=O)N[C@@H](C(C)C)C(=O)N(C)[C@@H](CC(C)C)C(=O)N[C@@H](C)C(=O)N[C@H](CCCCNC(=O)C(C)(C)C)C(=O)N(C)[C@@H](CC(C)C)C(=O)N(C)[C@@H](CC(C)C)C(=O)N(C)[C@@H](C(C)C)C(=O)N1C | 2560 | > 10000 |
| 114 | 55.9 | 170 | 350 | 65.2 | C/C=C/C[C@@H](C)[C@@H](O)[C@H]1C(=O)N[C@@H](CC)C(=O)N(C)CC(=O)N(C)[C@@H](CC(C)C)C(=O)N[C@@H](C(C)C)C(=O)N(C)[C@@H](CC(C)C)C(=O)N[C@@H](C)C(=O)N[C@H](CCN(CC)CC)C(=O)N(C)[C@@H](CC(C)C)C(=O)N(C)[C@@H](CC(C)C)C(=O)N(C)[C@@H](C(C)C)C(=O)N1C | 1500 | 8620 |
| 90 | 151 | 660 | 2350 | 218 | C/C=C/C[C@@H](C)[C@@H](O)[C@H]1C(=O)N[C@@H](CC)C(=O)N(C)CC(=O)N(C)[C@@H](CC(C)C)C(=O)N[C@@H](C(C)C)C(=O)N(C)[C@@H](CC(C)C)C(=O)N[C@@H](C)C(=O)N[C@H](CCN)C(=O)N(C)[C@@H](CC(C)C)C(=O)N(C)[C@@H](CC(C)C)C(=O)N(C)[C@@H](C(C)C)C(=O)N1C | 5300 | > 10000 |
| 55 | 158 | 380 | 950 | 140 | C/C=C/C[C@@H](C)[C@@H](O)[C@H]1C(=O)N[C@@H](CC)C(=O)N(C)CC(=O)N(C)[C@@H](CC(C)C)C(=O)N[C@@H](C(C)C)C(=O)N(C)[C@@H](CC(C)C)C(=O)N[C@@H](C)C(=O)N[C@H](CN(CC)CC)C(=O)N(C)[C@@H](CC(C)C)C(=O)N(C)[C@@H](CC(C)C)C(=O)N(C)[C@@H](C(C)C)C(=O)N1C | 2680 | > 10000 |
| 50 | 66.8 | 200 | 480 | 83.5 | C/C=C/C[C@@H](C)[C@@H](O)[C@H]1C(=O)N[C@@H](CC)C(=O)N(C)CC(=O)N(C)[C@@H](CC(C)C)C(=O)N[C@@H](C(C)C)C(=O)N(C)[C@@H](CC(C)C)C(=O)N[C@@H](C)C(=O)N[C@H](CNC(=O)OC(C)(C)C)C(=O)N(C)[C@@H](CC(C)C)C(=O)N(C)[C@@H](CC(C)C)C(=O)N(C)[C@@H](C(C)C)C(=O)N1C | 1720 | > 10000 |
| 20 | 25.2 | 190 | 670 | 22.9 | C/C=C/C[C@@H](C)[C@@H](O)[C@H]1C(=O)N[C@@H](CC)C(=O)N(C)CC(=O)N(C)[C@@H](CC(C)C)C(=O)N[C@@H](C(C)C)C(=O)N(C)[C@@H](CC(C)C)C(=O)N[C@@H](C)C(=O)N[C@H](CN(C)C)C(=O)N(C)[C@@H](CC(C)C)C(=O)N(C)[C@@H](CC(C)C)C(=O)N(C)[C@@H](C(C)C)C(=O)N1C | 2050 | > 10000 |
| 6.7 |  | 370 | 910 |  | C/C=C/C[C@@H](C)[C@@H](O)[C@H]1C(=O)N[C@@H](CC)C(=O)N(C)CC(=O)N(C)[C@@H](CC(C)C)C(=O)N[C@@H](C(C)C)C(=O)N(C)[C@@H](CC(C)C)C(=O)N[C@@H](C)C(=O)N[C@H](C)C(=O)N(C)[C@@H](CC(C)C)C(=O)N(C)[C@@H](CC(C)C)C(=O)N(C)[C@@H](C(C)C)C(=O)N1C [CYCLOSPORINE] |  |  |
